The values that follow come from patent publication US20240301319A1, “PERFUMING COMPOSITIONS” (FIRMNICH SA, priority 2017, published 2024).

Data set [1] can be described thus: Odor threshold and odor value of perfuming compounds (Tables 4 to 10).
Data set [2] in a line: Volatility of perfuming compounds (Tables 4 to 10), with top/middle/bottom note type. Format: physicochemical. The procedure: In some aspects, the first perfume accord comprises perfuming compounds having a volatility ranging from 70,000 to 100 μg/l in air. In some aspects, perfuming compounds having a volatility ranging from 70,000 to 100 μg/l in air are referred to as “top notes”.
In some aspects, the second perfume accord comprises perfuming compounds having a volatility ranging from 99 to 50 μg/l in air. In some aspects, perfuming compounds having a volatility ranging from 99 to 50 μg/l in air are referred to as “middle notes”.
In some aspects, the third perfume accord comprises perfuming compounds having a volatility ranging from 49 to 0.1 μg/l in air. In some aspects, perfuming compounds having a volatility ranging from 49 to 0.1 μg/l in air are referred to as “bottom notes”.
Tables 4 to 10 describe top, middle and bottom note perfuming compounds for watery, green, fruity, citrus, sweet, gourmand and woody notes respectively.

Where [3] appears, read: perfuming compounds having a green note.
Setting [4] is: Table 6, perfuming compounds having a fruity note.
Where [5] appears, read: Table 6, perfuming compounds having a fruity note, note type by volatility.
The mark [6] stands for this setting: note type (Top/Middle/Bottom) by volatility, perfuming compounds having a green note.
[7] abbreviates: Table 7, citrus note, equals volatility divided by odor threshold.
Setting [8] is: Table 7, citrus note, top, middle or bottom note.
[9] abbreviates: Table 8, perfuming compounds having a sweet note.
Setting [10] is: Table 8, perfuming compounds having a sweet note, note type by volatility.
[11] abbreviates: Table 10, perfuming compounds having a woody note, note type by volatility.

Regarding `CCCC(=O)OCC` [ETHYL BUTANOATE], the “Odor Threshold (μg/l air)” value in data set [1] (setting [3]) came out at 3.68E−04 μg/l air. In data set [2] (setting [4]), this compound displayed a Volatility of 142519.74 μg/l air. Moreover, the Type entry was “TOP (perfuming compounds having a volatility ranging from 70,000 to 100 μg/l in air are referred to as “top notes”)” in data set [2] (setting [5]) and “Top” in data set [2] (setting [6]). Also, in data set [2] (setting [3]), the “Volatility (μg/l air)” value came out at 142519.74 μg/l air.

For the compound `CC(CO)c1ccccc1` (racemic) [(+−)-2-phenyl-1-propanol], the “Odor Threshold (μg/l air)” value in data set [1] (setting [3]) came out at 3.62E−02 μg/l air. In addition, in data set [2] (setting [6]), the Type entry is on record as “Top”. Also, the “Volatility (μg/l air)” value in data set [2] (setting [3]) is recorded as 142.19 μg/l air.

For `COCC(C)Cc1ccccc1` (racemic) [(+−)-(3-methoxy-2-methylpropyl)benzene], the “Odor Threshold (μg/l air)” value is 1.51E−02 μg/l air in data set [1] (Table 7, citrus note) and 1.51E−02 μg/l air in data set [1] (setting [3]). The “Odor Value” in data set [1] (setting [7]) is given as 3.89E+04. In addition, in data set [2] (setting [4]), the Volatility was determined as 587.76 μg/l air. Moreover, the results for the Type result in data set [2] (setting [5]), in data set [2] (setting [8]) and in data set [2] (setting [6]) were “TOP (perfuming compounds having a volatility ranging from 70,000 to 100 μg/l in air are referred to as “top notes”)”, “Top” and “Top”, respectively. Besides, the “Volatility (μg/l air)” value in data set [2] (Table 7, citrus note) was 587.76 μg/l air; in data set [2] (setting [3]), 587.76 μg/l air.

Consider `CCCC(S)CCOC(C)=O` (racemic) [(+−)-3-mercaptohexyl acetate], for which the “Odor Threshold (μg/l air)” value in data set [1] (setting [3]) was 2.72E−06 μg/l air. Further, in data set [2] (setting [4]), the Volatility worked out at 421.09 μg/l air. Further, the results for the Type result in data set [2] (setting [5]) and in data set [2] (setting [6]) were “TOP (perfuming compounds having a volatility ranging from 70,000 to 100 μg/l in air are referred to as “top notes”)” and “Top”, respectively. For the same compound, in data set [2] (setting [3]), the “Volatility (μg/l air)” value is listed as 421.09 μg/l air.

`C/C=C/c1ccc(O)c(OC)c1` [2-methoxy-4-[(1E)-1-propen-1-yl]phenol]: the “Odor Threshold” value in data set [1] (setting [9]) amounted to 6.63E−06 μg/l air; in data set [1] (Table 9, gourmand note), 6.63E−06 μg/l air. In addition, in data set [1] (setting [9]), the “Odor Value” was determined as 1.70E+06. Also, the Volatility in data set [2] (setting [9]) worked out at 11.28 μg/l air; in data set [2] (Table 9, gourmand note), 11.28 μg/l air. The Type entry in data set [2] (setting [10]) is recorded as “Bottom”; in data set [2] (Table 9, perfuming compounds having a gourmand note, note type by volatility), “Bottom”.

As for `CC1CCC2C(C)(C)C3CC12CCC3(C)O` (racemic), in data set [1] (Table 10, woody note), the “Odor Threshold” value is recorded as 3.38E−02 μg/l air. In addition, the Type result in data set [2] (setting [11]) is “Bottom”. In data set [2] (Table 10, woody note), this compound displayed a Volatility of 11.83 μg/l air.

With `CCC(=O)OC/C=C/c1ccccc1` [(E)-3-PHENYL-2-PROPENYL PROPANOATE], in data set [1] (setting [4]), the “Odor Threshold” value turned out to be 1.28E−04 μg/l air and the “Odor Value” came to 6.35E+04. In data set [2] (setting [4]), this compound gave a Volatility of 8.14 μg/l air. In addition, the Type result in data set [2] (setting [5]) is “Bottom”.

For the compound `C/C=C(\C)C(=O)OCCCCCC` [hexyl (2E)-2-methyl-2-butenoate], the “Odor Threshold” value in data set [1] (setting [9]) is reported as 1.16E−02 μg/l air. In data set [1] (setting [9]), the “Odor Value” was determined as 2.22E+04. The “Odor Threshold (μg/l air)” value in data set [1] (setting [3]) is given as 1.16E−02 μg/l air. Further, the Volatility in data set [2] (setting [4]) and in data set [2] (setting [9]) was 256.81 μg/l air in each case. Moreover, the Type entry in data set [2] (setting [5]) is “TOP (perfuming compounds having a volatility ranging from 70,000 to 100 μg/l in air are referred to as “top notes”)”; in data set [2] (setting [10]) it was “Top”; in data set [2] (setting [6]) it was “Top”. Also, in data set [2] (setting [3]), the “Volatility (μg/l air)” value stood at 256.81 μg/l air.

With `Cc1occc(=O)c1O` [3-HYDROXY-2-METHYL-4(4H)-PYRANONE], the “Odor Threshold” value in data set [1] (setting [4]) and in data set [1] (setting [9]) was 4.17E−04 μg/l air throughout. The “Odor Value” in data set [1] (setting [4]) and in data set [1] (setting [9]) was 2.22E+05 throughout. Further, the Volatility in data set [2] (setting [4]) and in data set [2] (setting [9]) was 92.42 μg/l air each time. In addition, the Type entry in data set [2] (setting [5]) and in data set [2] (setting [10]) was “Middle” throughout.

On to `CCC(C)C(=O)OC(C)C` (racemic) [(+−)-ISOPROPYL 2-METHYLBUTANOATE], for which the “Odor Threshold (μg/l air)” value in data set [1] (Table 7, citrus note) came to 8.42E−03 μg/l air. Besides, the “Odor Value” in data set [1] (setting [7]) is on record as 6.10E+06. Further, the Volatility in data set [2] (setting [4]) turned out to be 51367.63 μg/l air. Besides, the figures for the Type entry in data set [2] (setting [5]) and in data set [2] (setting [8]) were “TOP (perfuming compounds having a volatility ranging from 70,000 to 100 μg/l in air are referred to as “top notes”)” and “Top”, respectively. Further, in data set [2] (Table 7, citrus note), the “Volatility (μg/l air)” value stood at 51367.63 μg/l air.

With `CC(C)=CC1CC(C)CCO1` (stereo not drawn), in data set [1] (setting [3]), the “Odor Threshold (μg/l air)” value turned out to be 8.77E−04 μg/l air. In addition, the Type result in data set [2] (setting [6]) is “Top”. Also, the “Volatility (μg/l air)” value in data set [2] (setting [3]) is listed as 2483.93 μg/l air.

Consider `CC/C=C\CCOC(=O)OC` [(3Z)-hex-3-en-1-yl methyl carbonate], for which, in data set [1] (setting [3]), the “Odor Threshold (μg/l air)” value was found to be 4.58E−02 μg/l air. The same compound returned a Volatility in data set [2] (setting [4]) of 1506.33 μg/l air. The results for the Type entry in data set [2] (setting [5]) and in data set [2] (setting [6]) were “TOP (perfuming compounds having a volatility ranging from 70,000 to 100 μg/l in air are referred to as “top notes”)” and “Top”, respectively. In addition, the “Volatility (μg/l air)” value in data set [2] (setting [3]) is 1506.33 μg/l air.

As for `O=C1CCCCCCCCCCC(=O)OCCO1` [1,4-dioxacyclohexadecane-5,16-dione], in data set [1] (setting [9]), the “Odor Threshold” value was 7.05E−04 μg/l air and the “Odor Value” came to 6.55E+02. Also, the Volatility in data set [2] (setting [9]) is 0.46 μg/l air. For the same compound, the Type result in data set [2] (setting [10]) is listed as “Bottom”.

In the case of `CC(=O)OC(CC(C)C)CC(C)C` [1-ISOBUTYL-3-METHYLBUTYL ACETATE], the “Odor Threshold (μg/l air)” value in data set [1] (setting [3]) is on record as 1.62E+00 μg/l air. In data set [2] (setting [4]), this compound came in with a Volatility of 5265.61 μg/l air. The Type result was “TOP (perfuming compounds having a volatility ranging from 70,000 to 100 μg/l in air are referred to as “top notes”)” in data set [2] (setting [5]) and “Top” in data set [2] (setting [6]). The “Volatility (μg/l air)” value in data set [2] (setting [3]) is recorded as 5265.61 μg/l air.

On to “(A) + (+−)-3,5,6,6-tetramethyl-4-methylidene-2-heptanone (B) + (+−)-(4E)-3,4,5,6,6-pentamethyl-4-hepten-2-one (C) + (+−)-(3Z)-3,4,5,6,6-pentamethyl-3-hepten-2-one (D) + (+−)-(3E)-3,4,5,6,6-pentamethyl-3-hepten-2-one (E)”, for which the “Odor Threshold (μg/l air)” value in data set [1] (Table 7, citrus note) came to 7.24E−02 μg/l air. In addition, in data set [1] (setting [7]), the “Odor Value” is reported as 9.11E+03. Besides, the “Volatility (μg/l air)” value in data set [2] (Table 7, citrus note) came to 659.22 μg/l air. The Type result in data set [2] (setting [8]) is given as “Top”.

Turning to `CCCCC(CC)C(=O)OC` (racemic) [(+−)-methyl 2-ethylhexanoate], in data set [1] (Table 10, woody note), the “Odor Threshold” value was found to be 1.74E−01 μg/l air. The Volatility in data set [2] (setting [4]) is 6677.64 μg/l air; in data set [2] (Table 10, woody note) it was 6677.64 μg/l air. Moreover, the Type result is “TOP (perfuming compounds having a volatility ranging from 70,000 to 100 μg/l in air are referred to as “top notes”)” in data set [2] (setting [5]) and “Top” in data set [2] (setting [11]).

With `CCCC(O)CC[C@@H]1[C@@H](C)CCCC1(C)C` (mixture of isomers), the “Odor Threshold” value in data set [1] (Table 10, woody note) came out at 5.92E−04 μg/l air. Moreover, the Type result in data set [2] (setting [11]) is “Bottom”. The compound further showed a Volatility in data set [2] (Table 10, woody note) of 2.34 μg/l air.

For `C/C=C/c1ccc(OC(C)=O)c(OC)c1` [(E)-2-METHOXY-4-(1-PROPENYL)PHENYL ACETATE], the “Odor Threshold” value in data set [1] (setting [4]) is recorded as 4.08E−07 μg/l air. Further, the “Odor Value” in data set [1] (setting [4]) and in data set [1] (setting [7]) was 4.54E+06 throughout. For the same compound, in data set [1] (Table 7, citrus note), the “Odor Threshold (μg/l air)” value came to 4.08E−07 μg/l air. In data set [2] (setting [4]), this compound displayed a Volatility of 1.85 μg/l air. In addition, the Type entry in data set [2] (setting [5]) and in data set [2] (setting [8]) was “Bottom” in each case. Further, in data set [2] (Table 7, citrus note), the “Volatility (μg/l air)” value came out at 1.85 μg/l air.
